≈ marks a conversion by molar mass, not a printed value. Calls of active or inactive are those of the source. No cut-off for these calls is given here.
What was measured:
[1] = tested on: Mycobacterium tuberculosis; test: Antitubercular activity against wild type Mycobacterium tuberculosis H37Rv ATCC 25618 assessed as growth inhibition after 6 days by resazurin dye-based assay; assay type: functional; settings: for MIC90: H37Rv ATCC 25618, 144 h
[2] = biological target: T1, Enoyl-[acyl-carrier-protein] reductase [NADH] (Mycobacterium tuberculosis, UniProt P9WGR1); test: Inhibition of Mycobacterium tuberculosis full length biotinylated InhA (270 amino acids) using DDCoA as substrate assessed as NADH oxidation by fluorimetric analysis
T1 sequence (P9WGR1 whole entry): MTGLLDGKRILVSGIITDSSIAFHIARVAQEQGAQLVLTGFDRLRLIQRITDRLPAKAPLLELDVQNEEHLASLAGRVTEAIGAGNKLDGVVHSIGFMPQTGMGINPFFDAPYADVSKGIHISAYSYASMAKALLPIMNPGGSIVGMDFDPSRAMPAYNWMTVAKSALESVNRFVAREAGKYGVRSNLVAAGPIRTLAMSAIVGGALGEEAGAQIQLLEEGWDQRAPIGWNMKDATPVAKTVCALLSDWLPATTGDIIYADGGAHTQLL

| SMILES | MIC90 [1] [µM] | IC50 [2] [nM] | growth inhibition (GI) [1] |
| --- | --- | --- | --- |
| CCc1cc(C(=O)N[C@@H]2C[C@@H](C(=O)NCc3nc(C)no3)N(C(=O)c3coc4ccccc34)C2)n(CC)n1 | 0.5 (≈ 0.26 µg/mL) | 4 | – |
| CCc1cc(C(=O)N[C@@H]2C[C@@H](C(=O)Nc3ccn(C)n3)N(C(=O)c3coc4ccccc34)C2)n(C)n1 | 4 (≈ 1.96 µg/mL) | 7 | – |
| CCc1cc(C(=O)N[C@@H]2C[C@@H](C(=O)NCc3ncco3)N(C(=O)c3coc4ccccc34)C2)n(C)n1 | 1 (≈ 0.491 µg/mL) | 5 | – |
| CCc1cc(C(=O)N[C@@H]2C[C@@H](C(=O)NCc3nc(C)no3)N(C(=O)c3coc4ccccc34)C2)n(C)n1 | 2 (≈ 1.01 µg/mL) | 7 | – |
| CCc1cc(C(=O)N[C@@H]2C[C@@H](C(=O)NCC3CCCO3)N(C(=O)c3coc4ccccc34)C2)n(C)n1 (some centres not stated) | 4 (≈ 1.97 µg/mL) | 45 | – |
| CCc1cc(C(=O)N[C@@H]2C[C@@H](C(=O)NCC(=O)OC)N(C(=O)c3coc4ccccc34)C2)n(Cc2ccccc2)n1 | > 31 | > 1000 | – |
| CCc1cc(C(=O)N[C@@H]2C[C@@H](C(=O)NCc3nccs3)N(C(=O)c3coc4ccccc34)C2)n(C)n1 | 2 (≈ 1.01 µg/mL) | 17 | – |
| CCc1cc(C(=O)N[C@@H]2C[C@@H](C(=O)NCc3ccc(C(F)(F)F)cc3)N(C(=O)c3coc4ccccc34)C2)n(C)n1 | 16 (≈ 9.08 µg/mL) | 42 | – |
| CCc1cc(C(=O)N[C@@H]2C[C@@H](C(=O)NCC(=O)NC)N(C(=O)c3coc4ccccc34)C2)n(C)n1 | – | – | Active |
| CCc1cc(C(=O)N[C@@H]2C[C@@H](C(=O)Nc3ccc4c(c3)B(O)OC4)N(C(=O)c3coc4ccccc34)C2)n(C)n1 | 4 (≈ 2.17 µg/mL) | 26 | – |
| CCNC(=O)[C@@H]1C[C@@H](NC(=O)c2cc(CC)nn2C)CN1C(=O)c1ccc2sccc2c1 | – | 121 | – |
| CCc1cc(C(=O)N[C@@H]2C[C@@H](C(=O)NCc3ccc4c(c3)B(O)OC4)N(C(=O)c3coc4ccccc34)C2)n(CC)n1 | 0.2 (≈ 0.114 µg/mL) | 2 | – |
| CCc1cc(C(=O)N[C@@H]2C[C@@H](C(=O)NCc3ccc(OC(F)(F)F)cc3)N(C(=O)c3coc4ccccc34)C2)n(C)n1 | 23.4 (≈ 13.7 µg/mL) | 5 | – |
| CCc1cc(C(=O)N[C@@H]2C[C@@H](C(=O)N(CC)CC)N(C(=O)c3coc4ccccc34)C2)n(C)n1 | > 31 | 948 | – |
| CCOC(=O)CCNC(=O)[C@@H]1C[C@@H](NC(=O)c2cc(CC)nn2C)CN1C(=O)c1coc2ccccc12 | 4 (≈ 2.04 µg/mL) | 22 | – |
| CCc1cc(C(=O)N[C@@H]2C[C@@H](C(=O)Nc3cc(C)on3)N(C(=O)c3coc4ccccc34)C2)n(C)n1 | 16 (≈ 7.85 µg/mL) | 18 | – |
| CCNC[C@@H]1C[C@@H](NC(=O)c2cc(CC)nn2C)CN1C(=O)c1coc2ccccc12 | > 31 | 440 | – |
| CCc1cc(C(=O)N[C@@H]2C[C@@H](C(=O)NCC(F)(F)F)N(C(=O)c3coc4ccccc34)C2)n(C)n1 | 4 (≈ 1.97 µg/mL) | 46 | – |
| CCc1cc(C(=O)N[C@@H]2C[C@@H](C(=O)NCCc3ccccn3)N(C(=O)c3coc4ccccc34)C2)n(C)n1 | 1 (≈ 0.515 µg/mL) | 25 | – |
| CCNC(=O)[C@@H]1C[C@@H](NC(=O)c2cc(CC)nn2C)CN1C(=O)c1ccc2occc2c1 | – | 74 | – |
| CCc1cc(C(=O)N[C@@H]2C[C@@H](C(=O)NCc3ccccc3)N(C(=O)c3coc4ccccc34)C2)n(C)n1 | 4 (≈ 2 µg/mL) | 41 | – |
| CCCn1nc(CC)cc1C(=O)N[C@@H]1C[C@@H](C(=O)NCC(=O)OC)N(C(=O)c2coc3ccccc23)C1 | 1 (≈ 0.51 µg/mL) | 11 | – |
| CCc1cc(C(=O)N[C@@H]2C[C@@H](C(=O)NCCc3ccccn3)N(C(=O)c3coc4ccccc34)C2)n(CC)n1 | 0.5 (≈ 0.264 µg/mL) | 4 | – |
| CCc1cc(C(=O)N[C@@H]2C[C@@H](C(=O)OC)N(C(=O)c3coc4ccccc34)C2)n(C)n1 | – | 215 | – |
| CCc1cc(C(=O)N[C@@H]2C[C@@H](C(=O)NC3CCOC3=O)N(C(=O)c3coc4ccccc34)C2)n(C)n1 (some centres not stated) | > 31 | 80 | – |
| CCc1cc(C(=O)N[C@@H]2C[C@@H](C(=O)Nc3cnn(CC)n3)N(C(=O)c3coc4ccccc34)C2)n(C)n1 | 4 (≈ 2.02 µg/mL) | 3 | – |

| SMILES | MIC90 [1] [µM] | IC50 [2] [nM] | growth inhibition (GI) [1] |
| --- | --- | --- | --- |
| CCc1cc(C(=O)N[C@@H]2C[C@@H](C(=O)Nc3ccn(Cc4ccc(F)cc4)n3)N(C(=O)c3coc4ccccc34)C2)n(C)n1 | 4 (≈ 2.33 µg/mL) | 5 | – |
| CCc1cc(C(=O)N[C@@H]2C[C@@H](C(=O)NCCO)N(C(=O)c3coc4ccccc34)C2)n(CC)n1 | 1 (≈ 0.468 µg/mL) | 3 | – |
| CCc1cc(C(=O)N[C@@H]2C[C@@H](C(=O)NCCc3ccc(F)cc3)N(C(=O)c3coc4ccccc34)C2)n(C)n1 | 1 (≈ 0.532 µg/mL) | 6 | – |
| CCc1cc(C(=O)N[C@@H]2C[C@@H](C(N)=O)N(C(=O)c3coc4ccccc34)C2)n(C)n1 | 3 (≈ 1.23 µg/mL) | 12 | – |
| CCc1cc(C(=O)N[C@@H]2C[C@@H](C(=O)Nc3ccn(Cc4c(F)cccc4F)n3)N(C(=O)c3coc4ccccc34)C2)n(C)n1 | 0.7 (≈ 0.421 µg/mL) | 4 | – |
| CCc1cc(C(=O)N[C@@H]2C[C@@H](C(=O)NCCNC(C)=O)N(C(=O)c3coc4ccccc34)C2)n(C)n1 | 4 (≈ 1.98 µg/mL) | 20 | – |
| CCCNC(=O)[C@@H]1C[C@@H](NC(=O)c2cc(CC)nn2C)CN1C(=O)c1coc2ccccc12 | 15.6 (≈ 7.04 µg/mL) | 21 | – |
| CCc1cc(C(=O)N[C@@H]2C[C@@H](C(=O)NCc3ccc(F)c(F)c3)N(C(=O)c3coc4ccccc34)C2)n(C)n1 | 2 (≈ 1.07 µg/mL) | 9 | – |
| CCc1cc(C(=O)N[C@@H]2C[C@@H](C(=O)NCc3cnc(C)cn3)N(C(=O)c3coc4ccccc34)C2)n(C)n1 | 8 (≈ 4.12 µg/mL) | 22 | – |
| CCc1cc(C(=O)N[C@@H]2C[C@@H](C(=O)NCC(=O)OC)N(C(=O)c3coc4ccccc34)C2)n(CCO)n1 | > 31 | > 1000 | – |
| COC(=O)CNC(=O)[C@@H]1C[C@@H](NC(=O)c2cc(C3CC3)nn2C)CN1C(=O)c1coc2ccccc12 | 1 (≈ 0.494 µg/mL) | 15 | – |
| CCc1cc(C(=O)N[C@@H]2C[C@@H](C(=O)NCc3ccc(C)o3)N(C(=O)c3coc4ccccc34)C2)n(C)n1 | 1.5 (≈ 0.755 µg/mL) | 21 | – |
| CCCc1cc(C(=O)N[C@@H]2C[C@@H](C(=O)NCC(=O)OC)N(C(=O)c3coc4ccccc34)C2)n(C)n1 | 0.5 (≈ 0.248 µg/mL) | 22 | – |
| CCc1cc(C(=O)N[C@@H]2C[C@@H](C(=O)Nc3ccccn3)N(C(=O)c3coc4ccccc34)C2)n(C)n1 | 4 (≈ 1.95 µg/mL) | 11 | – |
| CCc1cc(C(=O)N[C@@H]2C[C@@H](C(=O)NCC(=O)OC)N(C(=O)c3coc4ccccc34)C2)n(CC)n1 | 0.05 (≈ 0.0248 µg/mL) | 3 | – |
| CCc1cc(C(=O)N[C@@H]2C[C@@H](C(=O)NCCN(C)C)N(C(=O)c3coc4ccccc34)C2)n(C)n1 | > 31 | 170 | – |
| CCc1cc(C(=O)N[C@@H]2C[C@@H](C(=O)NCC3OB(O)c4ccccc43)N(C(=O)c3coc4ccccc34)C2)n(C)n1 (some centres not stated) | 2 (≈ 1.11 µg/mL) | 35 | – |
| CCc1cc(C(=O)N[C@@H]2C[C@@H](C(=O)NCCOC)N(C(=O)c3coc4ccccc34)C2)n(C)n1 | 4 (≈ 1.87 µg/mL) | 14 | – |
| CCc1cc(C(=O)N[C@@H]2C[C@@H](C(=O)NCc3ccn(CC)n3)N(C(=O)c3coc4ccccc34)C2)n(C)n1 | 4 (≈ 2.07 µg/mL) | 32 | – |
| CCc1cc(C(=O)N[C@@H]2C[C@@H](C(=O)NCC(=O)N(C)C)N(C(=O)c3coc4ccccc34)C2)n(C)n1 | – | – | Active |
| COC(=O)CNC(=O)[C@@H]1C[C@@H](NC(=O)c2cc(CC(C)C)nn2C)CN1C(=O)c1coc2ccccc12 | > 31 | > 1000 | – |
| CCc1cc(C(=O)N[C@@H]2C[C@@H](C(=O)N[C@H](CO)Cc3ccccc3)N(C(=O)c3coc4ccccc34)C2)n(C)n1 | 1 (≈ 0.544 µg/mL) | 112 | – |
| CCc1cc(C(=O)N[C@@H]2C[C@@H](C(=O)O)N(C(=O)c3coc4ccccc34)C2)n(C)n1 | – | 1290 | – |
| CCc1cc(C(=O)N[C@@H]2C[C@@H](C(=O)NCC(N)=O)N(C(=O)c3coc4ccccc34)C2)n(C)n1 | – | – | Active |
| CCc1cc(C(=O)N[C@@H]2C[C@@H](C(=O)NC3CCCC3)N(C(=O)c3coc4ccccc34)C2)n(C)n1 | 4 (≈ 1.91 µg/mL) | 40 | – |
| CCc1cc(C(=O)N[C@@H]2C[C@@H](C(=O)Nc3nc(C)co3)N(C(=O)c3coc4ccccc34)C2)n(C)n1 | 8 (≈ 3.92 µg/mL) | 9 | – |

Source: ChEMBL document CHEMBL3124857, “Encoded library technology as a source of hits for the discovery and lead optimization of a potent and selective class of bactericidal direct inhibitors of Mycobacterium tuberculosis InhA” (J Med Chem, 2014)
